Literature values in patent publication US12369587B2, “Aqueous composition of epyrifenacil, flumioxazin and pyroxasulfone” (Valent U.S.A. LLC, priority 2020, dated 2025).

## C#CCN1C(=O)COc2cc(F)c(N3C(=O)C4=C(CCCC4)C3=O)cc21 [flumioxazin, 2-(7-fluoro-3-oxo-4-prop-2-ynyl-1,4-benzoxazin-6-yl)-4,5,6,7-tetrahydroisoindole-1,3-dione]
  water solubility: 1.79 ppm
